Measured values from patent US20220356170A1, “SREBP INHIBITOR COMPRISING A THIOPHENE CENTRAL RING” (Capulus Therapeutics, LLC, priority 2019, published 2022).

Legend:
Test in all cases: Cancer cell growth inhibition, Sulforhodamine B
Assay type in all cases: cell-based
NCIH292 = conditions: Homo sapiens, NCI-H292; NCIH292 (lung), 72 hr; Non-Responder Cell Lines with IC50 >10 uM or Not Determined
Experimental: (§1) The ability of select compounds to inhibit cell growth in various cancer cell lines are evaluated. […] The cell lines shown in Table 5 have reduced growth by at least 50% at 10 uM or lower over 72 hr treatment in growth media. The cell lines shown in Table 6 have reduced growth by at least 50% with an IC50 greater than 10 uM.
(§2) Six 10-fold compound dilutions are prepared in DMSO (e.g. 10 mM, 1 mM, 100 uM, 10 uM, 1 uM, and 0.1 uM). Single data points are acquired for each concentration. The final concentration of DMSO is 0.1%. The duration of the treatment is 72 hr. Growth inhibition is measured using Sulforhodamine B in a protein staining assay. Activity of the agents is determined by evaluation the following parameters: IC50, GI50, IC10, TGI, LC50, IC90, and GI90 (where these values can be calculated).

A204 = conditions: Homo sapiens; A204 (muscle), 72 hr; Responder Cell Lines
Experimental: as §1, §2

RD = conditions: Homo sapiens; RD (muscle), 72 hr; Non-Responder Cell Lines with IC50 >10 uM or Not Determined
Experimental: as §1, §2

COLO205 = conditions: Homo sapiens, COLO 205; COLO205 (colon), 72 hr; Responder Cell Lines
Experimental: as §1, §2

A2780 = conditions: Homo sapiens; A2780 (ovary), 72 hr; Responder Cell Lines
Experimental: as §1, §2

SKBR3 = conditions: Homo sapiens, SK-BR-3, 72 h, SKBR3 (breast)
Experimental: as §1, §2

MT3 = conditions: MT-3, 72 h, MT3 (breast)
Experimental: as §1, §2

JAR = JAR (placenta), 72 hr; Responder Cell Lines
Experimental: as §1, §2

NCIH82 = conditions: Homo sapiens, NCI-H82, 72 h, NCIH82 (lung)
Experimental: as §1, §2

SNB75 = conditions: Homo sapiens, SNB-75; SNB75 (brain), 72 hr; Non-Responder Cell Lines with IC50 >10 uM or Not Determined
Experimental: as §1, §2

NCIH358M = conditions: NCI-H358M; NCIH358M (lung), 72 hr; Non-Responder Cell Lines with IC50 >10 uM or Not Determined
Experimental: as §1, §2

UMUC3 = conditions: Homo sapiens; UMUC3 (bladder), 72 hr; Non-Responder Cell Lines with IC50 >10 uM or Not Determined
Experimental: as §1, §2

U87MG = conditions: Homo sapiens, U-87 MG; U87MG (brain), 72 hr; Non-Responder Cell Lines with IC50 >10 uM or Not Determined
Experimental: as §1, §2

PBMC = PBMC (hematological), 72 hr; Non-Responder Cell Lines with IC50 >10 uM or Not Determined
Experimental: as §1, §2

HEPG2 = conditions: Homo sapiens; HEPG2 (liver), 72 hr; Responder Cell Lines
Experimental: as §1, §2

SKNAS = conditions: Homo sapiens, SK-N-AS; SKNAS (brain), 72 hr; Non-Responder Cell Lines with IC50 >10 uM or Not Determined
Experimental: as §1, §2

MINO = conditions: Homo sapiens, 72 h, MINO (hematological)
Experimental: as §1, §2

U2OS = conditions: Homo sapiens; U2OS (bone), 72 hr; Non-Responder Cell Lines with IC50 >10 uM or Not Determined
Experimental: as §1, §2

SKMEL28 = conditions: Homo sapiens, SK-MEL-28; SKMEL28 (skin), 72 hr; Non-Responder Cell Lines with IC50 >10 uM or Not Determined
Experimental: as §1, §2

SF268 = conditions: Homo sapiens, SF-268; SF268 (brain), 72 hr; Non-Responder Cell Lines with IC50 >10 uM or Not Determined
Experimental: as §1, §2

MDAMB468 = conditions: Homo sapiens, MDA-MB-468, 72 h, MDAMB468 (breast)
Experimental: as §1, §2

SKHEP1 = conditions: Homo sapiens, SK-HEP1, 72 h, SKHEP1 (liver)
Experimental: as §1, §2

RDES = conditions: RD-ES; RDES (bone), 72 hr; Non-Responder Cell Lines with IC50 >10 uM or Not Determined
Experimental: as §1, §2

ACHN = conditions: Homo sapiens; ACHN (kidney), 72 hr; Responder Cell Lines
Experimental: as §1, §2

[1] = Non-Responder Cell Lines with IC50 >10 uM or Not Determined

IC50 (NCIH292): > 10 µM
IC50 (A204): < 10 µM
IC50 (RD): > 10 µM
IC50 (COLO205): < 10 µM
IC50 (A2780): < 10 µM
IC50 (SKBR3; [1]): > 10 µM
IC50 (SKBR3; Responder Cell Lines): < 10 µM
IC50 (MT3; [1]): > 10 µM
IC50 (MT3; Responder Cell Lines): < 10 µM
IC50 (JAR): < 10 µM
IC50 (NCIH82; [1]): > 10 µM
IC50 (NCIH82; Responder Cell Lines): < 10 µM
IC50 (SNB75): > 10 µM
IC50 (NCIH358M): > 10 µM
IC50 (UMUC3): > 10 µM
IC50 (U87MG): > 10 µM
IC50 (HEPG2): < 10 µM
IC50 (SKNAS): > 10 µM
IC50 (MINO; [1]): > 10 µM
IC50 (MINO; Responder Cell Lines): < 10 µM
IC50 (U2OS): > 10 µM
IC50 (SKMEL28): > 10 µM
IC50 (SF268): > 10 µM
IC50 (MDAMB468; [1]): > 10 µM
IC50 (MDAMB468; Responder Cell Lines): < 10 µM
IC50 (SKHEP1; [1]): > 10 µM
IC50 (SKHEP1; Responder Cell Lines): < 10 µM
IC50 (RDES): > 10 µM
IC50 (ACHN): < 10 µM
Compound: CC(C)(O)c1cc(-c2csc(-c3ccc(C(=O)N4CCC(O)CC4)cc3Cl)c2)ccn1 [Compound 1, (3-chloro-4-(4-(2-(2-hydroxypropan-2-yl)pyridin-4-yl)thiophen-2-yl)phenyl)(4-hydroxypiperidin-1-yl)methanone]
IC50 (PBMC): > 10 µM
